{"source": "paper PMC7581224", "about": "(Journal of medicinal chemistry, 2020)", "key": {"BoNT/A": {"test_system": "BoNT/A", "details": "mouse, in vivo; cited from earlier work"}, "MMPs": {"test_system": "MMPs", "type": "biochemical"}}}
{"smiles": "O=C(/C=C/c1ccc(Cl)cc1Cl)NO", "note": "[Compound 7, 2,4-dichlorocinnamic hydroxamic acid]", "values": [{"measurement": "rescued mice", "setting": "BoNT/A", "result": 16, "unit": "%"}, {"measurement": "small molecule-associated toxicity", "setting": "BoNT/A", "result": "no small molecule-associated toxicity"}]}
{"smiles": "CS(=O)(=O)SCCCCCN(O)C(=O)/C=C/c1ccc(Cl)cc1Cl", "note": "[Compound 31, (E)-S-(5-(3-(2,4-dichlorophenyl)-N-hydroxyacrylamido)pentyl) methanesulfonothioate]", "values": [{"measurement": "IC50", "setting": "HEK293 cells", "result": "did not inhibit cells to the extent that an IC50 value could be calculated"}]}
{"smiles": "CS(=O)(=O)SCCCNC(=O)CC(CC(=O)NO)c1ccc(Cl)cc1Cl", "note": "(stereo not drawn) [Compound 53, S-(3-(3-(2,4-dichlorophenyl)-5-(hydroxyamino)-5-oxopentanamido)propyl) methanesulfonothioate]", "values": [{"measurement": "MMP inhibition", "setting": "MMPs", "result": "inhibits MMPs significantly less than 32"}, {"measurement": "covalent inhibition", "setting": "MMPs", "result": "no covalent inhibition was observed"}, {"measurement": "cellular toxicity", "setting": "HEK293 cells", "result": "did not exhibit cellular toxicity"}]}
{"smiles": "CS(=O)(=O)SCCCCCCN(O)C(=O)/C=C/c1ccc(Cl)cc1Cl", "note": "[Compound 32, (E)-S-(6-(3-(2,4-dichlorophenyl)-N-hydroxyacrylamido)hexyl) methanesulfonothioate]", "values": [{"measurement": "covalent inhibition", "setting": "MMPs", "result": "no covalent inhibition was observed"}]}
{"smiles": "CCCCCNC(=O)CC(CC(=O)NO)c1ccc(Cl)cc1Cl", "note": "(centres unmarked) [Compound 59, 3-(2,4-dichlorophenyl)-N^1-hydroxy-N^5-pentylpentanediamide]", "values": [{"measurement": "cellular toxicity", "setting": "HEK293 cells", "result": "did not exhibit cellular toxicity"}]}
